Assay [1] concerns Mycobacterium smegmatis (ATCC 7000084). The experiment in a line: Serial dilution assay (MIC), M. smegmatis. In kind it is cell-based. The settings on record: Mycolicibacterium smegmatis, ATCC7000084; growth inhibition at 24 h; read-out: minimum inhibitory concentration (MIC) against M. smegmatis. The method, then:
Serial dilutions of compounds were prepared as triplicates in sterile U-bottom-shaped 96-well plates (Corning, USA). Mueller-Hinton broth (MHB) medium was used for bacteria, and YMG medium was used for filamentous fungi and yeasts. The selected organisms represent a broad spectrum of pathogens of clinical interest, as well as sensitive indicator strains (Gram-positive bacteria: Bacillus subtilis (DSM 10), Staphylococcus aureus (DSM 346), Mycobacterium smegmatis (ATCC 7000084); Gram-negative bacteria: Acinetobacter baumannii (DSM 30008), Chromobacterium violaceum (DSM 30191), Escherichia coli (DSM 1116), Pseudomonas aeruginosa (PA 14); fungi and yeast: Schizosaccharomyces pombe (DSM 70572), Pichia anomala (DSM 6766), Mucor hiemalis (DSM 2656), Candida albicans (DSM 1665), Rhodotorula glutinis (DSM 10134)).
The compounds were dissolved in MeOH (1 mg/mL), added to the bacterial suspension, and diluted to the final concentrations. The plate was incubated at 37 °C under static conditions. Growth inhibition was assessed at 24 h. MeOH was used as negative control. […]

The subject of assay [2] is U-2OS cells. The experiment in a line: Cell proliferation assay (Incucyte), 24 h treatment and 47 h recovery. The assay is classed as cell-based, human. The settings on record: 24 h 5 x IC50 treatment. The method, then: U-2OS cells were seeded into fibronectin-coated (25 μg/mL) 96-well plate wells at densities of 3700 cells/well and allowed to spread overnight at 37 °C and 7.5% CO2. Cells were treated with 5 × IC50 concentrations of desired compounds for 24 h, washed twice with prewarmed PBS, and cultured in complete medium for further 47 h. Cells were recorded immediately after compound addition over the course of the experiment using an Incucyte S3 live-cell analysis system (Sartorius, Göttingen, Germany) with a 20 × objective at 37 °C and 5% CO2. Three phase contrast images per well and three wells per treatment were captured every hour for 71 h. The quantification of phase object counts was accomplished with the Adherent Cell-by-Cell analysis module of the IncuCyte S3 Live Cell Analysis Software and normalized to the average, respective initial phase contrast count. Graphical presentation of the data and ordinary one-way ANOVA followed by Dunnett’s multiple comparisons test was performed using GraphPad Prism version 8.4.3 for Windows, GraphPad Software (Boston, MA, USA, www.graphpad.com).

Molecules are shown by their SMILES. In brackets after ≈: the same amount, converted by molar mass. Entries after “also recorded” stand apart in the source; their conditions may differ.

Consider `C=C1[C@@H](C)[C@H]2[C@H](Cc3ccccc3)NC(=O)[C@]23OC(=O)/C=C/[C@H](O)CCC[C@@H](C)C/C=C/[C@H]3[C@@H]1OC(C)=O` [Compound 3, 7-O-acetyl cytochalasin B], for which, in assay [1], the MIC is 66.6 µg/mL (≈ 128 µM). Moreover, the “cell proliferation / recovery after washout” value in assay [2] is “significantly diminished; also recorded: completely abolished”.

The values are drawn from paper PMC11519904, “Comprehensive Cell Biological Investigation of Cytochalasin B Derivatives with Distinct Activities on the Actin Network” (Journal of Natural Products, 2024).
